Article PMC7265341, “Quantifying CDK inhibitor selectivity in live cells” (Nature Communications, 2020)
pIC50: −log10 of the molar value. Where two headings read alike, the source gives them in different places.

Experiments:
Type in all cases: binding
CDK17/Cyclin Y = CDK17/Cyclin Y (Homo sapiens, UniProt Q00537); test: NanoBRET live-cell target engagement, CDK17-NanoLuc/Cyclin Y in HEK-293; details: for inhibition at 10 µM: read-out: CDK17/Y Inhibition at 10µM (%); for pIC50: read-out: CDK17/Y IC50
CDK5/CDK5R1 = CDK5/CDK5R1 (Homo sapiens, UniProt Q00535); test: NanoBRET live-cell target engagement, CDK5-NanoLuc/CDK5R1 in HEK-293; details: for inhibition at 10 µM: read-out: CDK5/CDK5R1 Inhibition at 10µM (%)
CDK1/Cyclin E1 = CDK1/Cyclin E1 (Homo sapiens, UniProt P06493); test: NanoBRET live-cell target engagement, CDK1-NanoLuc/Cyclin E1 in HEK-293; details: for inhibition at 10 µM: read-out: CDK1/E1 Inhibition at 10µM (%)
CDK2/Cyclin E1 = CDK2/Cyclin E1 (Homo sapiens, UniProt P24941); test: NanoBRET live-cell target engagement, CDK2-NanoLuc/Cyclin E1 in HEK-293; details: 10µM, read-out: CDK2/E1 Inhibition at 10µM (%)
CDK11A/Cyclin L2 = molecular target: T1, CDK11A/Cyclin L2 (Homo sapiens, UniProt Q9UQ88); test: NanoBRET live-cell target engagement, CDK11A-NanoLuc/Cyclin L2 in HEK-293; details: for inhibition at 10 µM: read-out: CDK11a/L2 Inhibition at 10µM (%); for pIC50: read-out: CDK11a/L2 IC50
T1 sequence (Q9UQ88 1-783): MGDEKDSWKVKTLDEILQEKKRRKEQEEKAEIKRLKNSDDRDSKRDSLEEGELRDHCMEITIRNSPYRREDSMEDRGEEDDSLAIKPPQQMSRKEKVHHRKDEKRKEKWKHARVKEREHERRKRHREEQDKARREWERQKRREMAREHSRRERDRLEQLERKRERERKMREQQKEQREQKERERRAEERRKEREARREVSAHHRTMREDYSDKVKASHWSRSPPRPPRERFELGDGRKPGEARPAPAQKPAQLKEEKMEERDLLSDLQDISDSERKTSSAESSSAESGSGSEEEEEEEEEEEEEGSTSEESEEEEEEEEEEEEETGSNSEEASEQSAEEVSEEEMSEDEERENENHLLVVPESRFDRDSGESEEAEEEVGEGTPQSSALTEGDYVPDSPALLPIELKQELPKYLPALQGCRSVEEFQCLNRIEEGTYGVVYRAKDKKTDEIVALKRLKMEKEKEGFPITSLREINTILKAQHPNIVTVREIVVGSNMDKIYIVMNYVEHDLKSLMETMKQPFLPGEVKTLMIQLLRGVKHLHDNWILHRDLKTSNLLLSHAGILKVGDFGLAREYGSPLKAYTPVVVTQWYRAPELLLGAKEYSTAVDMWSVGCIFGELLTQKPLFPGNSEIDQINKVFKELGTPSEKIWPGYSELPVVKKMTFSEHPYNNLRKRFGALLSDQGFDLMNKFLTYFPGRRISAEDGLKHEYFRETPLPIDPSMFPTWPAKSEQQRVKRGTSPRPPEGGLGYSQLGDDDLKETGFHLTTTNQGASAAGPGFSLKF

CDK14/Cyclin Y = CDK14/Cyclin Y (Homo sapiens, UniProt O94921); test: NanoBRET live-cell target engagement, CDK14-NanoLuc/Cyclin Y in HEK-293; details: for inhibition at 10 µM: read-out: CDK14/Y Inhibition at 10µM (%)
CDK16/Cyclin Y = CDK16/Cyclin Y (Homo sapiens, UniProt Q00536); test: NanoBRET live-cell target engagement, CDK16-NanoLuc/Cyclin Y in HEK-293; details: 10µM, read-out: CDK16/Y Inhibition at 10µM (%)
CDK20/Cyclin H = CDK20/Cyclin H (Homo sapiens, UniProt Q8IZL9); test: NanoBRET live-cell target engagement, NanoLuc-CDK20/Cyclin H in HEK-293; details: 10µM, read-out: CDK20/H Inhibition at 10µM (%)
CDK6/Cyclin D1 = CDK6/Cyclin D1 (Homo sapiens, UniProt Q00534); test: NanoBRET live-cell target engagement, NanoLuc-CDK6/Cyclin D1 in HEK-293; details: for inhibition at 10 µM: read-out: CDK6/D1 Inhibition at 10µM (%); for pIC50: read-out: CDK6/D1 IC50
CDK13/Cyclin K = CDK13/Cyclin K (Homo sapiens, UniProt Q14004); test: NanoBRET live-cell target engagement, CDK13-NanoLuc/Cyclin K in HEK-293; details: 10µM, read-out: CDK13/K Inhibition at 10µM (%)

Sequence of CDK14/Cyclin Y (O94921 whole entry): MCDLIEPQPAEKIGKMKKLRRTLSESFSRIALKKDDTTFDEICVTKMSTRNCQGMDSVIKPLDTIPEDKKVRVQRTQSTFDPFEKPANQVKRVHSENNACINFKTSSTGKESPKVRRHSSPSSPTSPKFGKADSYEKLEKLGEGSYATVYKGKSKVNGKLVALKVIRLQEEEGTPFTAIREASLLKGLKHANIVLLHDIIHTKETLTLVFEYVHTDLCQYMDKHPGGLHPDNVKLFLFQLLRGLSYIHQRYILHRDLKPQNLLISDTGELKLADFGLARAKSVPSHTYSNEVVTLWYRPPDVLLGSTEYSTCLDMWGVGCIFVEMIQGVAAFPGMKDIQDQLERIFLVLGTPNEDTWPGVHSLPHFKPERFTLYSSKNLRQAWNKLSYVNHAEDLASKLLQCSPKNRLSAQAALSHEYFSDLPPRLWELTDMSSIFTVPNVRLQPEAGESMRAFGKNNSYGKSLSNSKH
Sequence of CDK14/Cyclin Y (Q8ND76 whole entry partner): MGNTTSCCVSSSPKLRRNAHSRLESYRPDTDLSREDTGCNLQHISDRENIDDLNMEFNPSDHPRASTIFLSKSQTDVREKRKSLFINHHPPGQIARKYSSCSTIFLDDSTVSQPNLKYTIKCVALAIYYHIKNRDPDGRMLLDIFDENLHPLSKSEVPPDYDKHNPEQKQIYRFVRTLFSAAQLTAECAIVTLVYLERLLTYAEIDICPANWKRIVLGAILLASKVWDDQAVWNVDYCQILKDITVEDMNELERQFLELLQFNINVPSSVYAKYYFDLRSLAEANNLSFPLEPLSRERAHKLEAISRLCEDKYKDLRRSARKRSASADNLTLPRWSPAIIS
Sequence of CDK1/Cyclin E1 (P06493 whole entry): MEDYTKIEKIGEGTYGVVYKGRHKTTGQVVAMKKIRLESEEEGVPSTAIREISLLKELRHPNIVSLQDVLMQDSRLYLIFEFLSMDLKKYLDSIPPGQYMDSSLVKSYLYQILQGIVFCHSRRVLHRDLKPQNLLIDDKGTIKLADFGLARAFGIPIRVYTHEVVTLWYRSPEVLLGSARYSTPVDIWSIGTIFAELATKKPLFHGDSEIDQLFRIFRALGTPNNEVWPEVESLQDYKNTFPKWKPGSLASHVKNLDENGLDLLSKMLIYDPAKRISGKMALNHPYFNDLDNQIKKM
Sequence of CDK1/Cyclin E1 (P24864 whole entry partner): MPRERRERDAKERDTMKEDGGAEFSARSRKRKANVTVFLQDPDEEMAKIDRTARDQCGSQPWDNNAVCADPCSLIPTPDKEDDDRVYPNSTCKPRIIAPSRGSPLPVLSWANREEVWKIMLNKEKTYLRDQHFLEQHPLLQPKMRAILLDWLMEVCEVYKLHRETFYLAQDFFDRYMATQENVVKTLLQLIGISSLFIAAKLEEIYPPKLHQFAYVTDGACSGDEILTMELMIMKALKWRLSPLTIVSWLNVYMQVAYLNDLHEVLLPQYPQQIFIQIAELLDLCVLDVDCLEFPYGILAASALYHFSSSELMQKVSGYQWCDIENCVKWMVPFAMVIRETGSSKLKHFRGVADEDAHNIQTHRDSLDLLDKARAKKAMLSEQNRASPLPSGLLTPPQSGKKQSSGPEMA
Sequence of CDK6/Cyclin D1 (Q00534 whole entry): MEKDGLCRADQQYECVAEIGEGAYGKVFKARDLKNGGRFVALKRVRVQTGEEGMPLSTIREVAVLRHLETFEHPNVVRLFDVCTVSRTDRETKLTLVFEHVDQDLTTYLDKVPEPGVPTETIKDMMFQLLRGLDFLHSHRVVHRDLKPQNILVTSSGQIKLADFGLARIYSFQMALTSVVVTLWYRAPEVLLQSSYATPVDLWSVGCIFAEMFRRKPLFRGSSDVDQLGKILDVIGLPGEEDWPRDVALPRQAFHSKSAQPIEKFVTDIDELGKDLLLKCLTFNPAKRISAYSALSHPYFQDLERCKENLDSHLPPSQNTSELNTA
Sequence of CDK6/Cyclin D1 (P24385 whole entry partner): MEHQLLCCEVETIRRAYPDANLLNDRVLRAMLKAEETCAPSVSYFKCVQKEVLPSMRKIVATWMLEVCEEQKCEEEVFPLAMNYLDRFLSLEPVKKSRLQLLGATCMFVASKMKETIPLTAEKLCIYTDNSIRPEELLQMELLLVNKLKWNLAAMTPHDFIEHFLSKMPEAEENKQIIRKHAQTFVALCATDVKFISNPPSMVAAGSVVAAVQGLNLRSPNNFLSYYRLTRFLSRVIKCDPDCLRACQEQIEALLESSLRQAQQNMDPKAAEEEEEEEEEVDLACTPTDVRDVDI
Sequence of CDK17/Cyclin Y (Q00537 whole entry): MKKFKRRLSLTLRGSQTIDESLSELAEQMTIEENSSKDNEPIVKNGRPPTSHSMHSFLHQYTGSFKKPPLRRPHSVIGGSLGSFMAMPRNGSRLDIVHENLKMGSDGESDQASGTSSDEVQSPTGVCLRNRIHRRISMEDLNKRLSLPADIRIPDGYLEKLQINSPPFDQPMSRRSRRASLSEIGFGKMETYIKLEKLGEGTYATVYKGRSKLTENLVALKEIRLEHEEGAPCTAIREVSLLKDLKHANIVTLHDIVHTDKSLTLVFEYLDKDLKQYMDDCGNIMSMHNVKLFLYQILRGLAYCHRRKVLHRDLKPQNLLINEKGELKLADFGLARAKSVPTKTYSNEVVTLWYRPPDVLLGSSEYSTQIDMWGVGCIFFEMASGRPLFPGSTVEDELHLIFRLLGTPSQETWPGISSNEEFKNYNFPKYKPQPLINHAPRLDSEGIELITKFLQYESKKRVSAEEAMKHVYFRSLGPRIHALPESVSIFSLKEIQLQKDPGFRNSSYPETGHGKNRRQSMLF
Sequence of CDK17/Cyclin Y (Q8ND76 whole entry partner): as the sequence (Q8ND76 whole entry partner) above
Sequence of CDK5/CDK5R1 (Q00535 whole entry): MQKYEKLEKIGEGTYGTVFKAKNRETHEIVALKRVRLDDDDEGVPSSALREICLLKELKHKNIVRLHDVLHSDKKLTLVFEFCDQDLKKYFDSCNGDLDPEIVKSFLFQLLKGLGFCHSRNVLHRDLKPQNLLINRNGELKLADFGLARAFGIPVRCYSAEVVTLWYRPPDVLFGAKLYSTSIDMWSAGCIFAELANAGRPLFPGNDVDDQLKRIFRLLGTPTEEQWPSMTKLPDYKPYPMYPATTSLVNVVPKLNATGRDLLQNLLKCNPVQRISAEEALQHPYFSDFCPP
Sequence of CDK5/CDK5R1 (Q15078 whole entry partner): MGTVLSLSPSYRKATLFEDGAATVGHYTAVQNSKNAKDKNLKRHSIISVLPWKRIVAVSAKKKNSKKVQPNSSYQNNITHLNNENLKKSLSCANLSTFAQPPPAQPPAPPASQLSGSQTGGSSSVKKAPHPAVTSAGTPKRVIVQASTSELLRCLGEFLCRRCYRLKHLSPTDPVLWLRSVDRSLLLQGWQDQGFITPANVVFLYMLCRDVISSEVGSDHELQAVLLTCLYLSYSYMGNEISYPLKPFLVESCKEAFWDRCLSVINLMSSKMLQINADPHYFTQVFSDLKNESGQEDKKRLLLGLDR
Sequence of CDK20/Cyclin H (Q8IZL9 whole entry): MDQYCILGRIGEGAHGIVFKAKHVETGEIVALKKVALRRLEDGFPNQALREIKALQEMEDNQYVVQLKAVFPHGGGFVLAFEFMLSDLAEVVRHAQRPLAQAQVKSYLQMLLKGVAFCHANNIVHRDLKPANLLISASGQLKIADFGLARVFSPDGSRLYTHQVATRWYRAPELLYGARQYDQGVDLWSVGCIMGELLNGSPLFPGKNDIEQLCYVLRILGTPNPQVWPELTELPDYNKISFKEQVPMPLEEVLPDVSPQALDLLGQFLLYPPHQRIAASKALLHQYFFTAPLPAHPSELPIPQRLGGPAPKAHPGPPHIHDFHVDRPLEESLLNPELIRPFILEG
Sequence of CDK20/Cyclin H (P51946 whole entry partner): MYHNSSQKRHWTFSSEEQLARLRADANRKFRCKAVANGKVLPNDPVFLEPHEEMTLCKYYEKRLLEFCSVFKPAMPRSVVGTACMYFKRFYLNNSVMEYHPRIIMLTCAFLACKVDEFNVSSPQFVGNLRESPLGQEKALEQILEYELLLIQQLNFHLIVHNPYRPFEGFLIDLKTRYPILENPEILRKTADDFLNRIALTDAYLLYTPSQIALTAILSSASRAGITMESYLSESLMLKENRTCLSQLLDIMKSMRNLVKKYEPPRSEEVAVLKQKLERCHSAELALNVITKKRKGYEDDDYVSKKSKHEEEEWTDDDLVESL
Sequence of CDK16/Cyclin Y (Q00536 whole entry): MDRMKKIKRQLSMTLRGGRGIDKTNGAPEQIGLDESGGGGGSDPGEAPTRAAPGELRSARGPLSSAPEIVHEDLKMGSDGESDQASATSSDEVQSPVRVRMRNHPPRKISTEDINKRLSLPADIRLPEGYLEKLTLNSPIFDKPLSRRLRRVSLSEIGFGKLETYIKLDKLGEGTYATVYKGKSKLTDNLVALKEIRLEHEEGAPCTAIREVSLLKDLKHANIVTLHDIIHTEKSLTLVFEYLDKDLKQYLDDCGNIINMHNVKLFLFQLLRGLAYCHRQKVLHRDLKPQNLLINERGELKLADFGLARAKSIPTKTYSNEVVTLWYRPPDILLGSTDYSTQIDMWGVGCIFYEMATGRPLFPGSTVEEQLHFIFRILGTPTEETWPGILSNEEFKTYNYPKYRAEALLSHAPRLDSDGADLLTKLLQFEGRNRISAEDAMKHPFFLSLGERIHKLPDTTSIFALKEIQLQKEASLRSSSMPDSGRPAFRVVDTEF
Sequence of CDK16/Cyclin Y (Q8ND76 whole entry partner): as the sequence (Q8ND76 whole entry partner) above

- inhibition at 10 µM (CDK17/Cyclin Y; average of experiments): 94.8%
- inhibition at 10 µM (CDK17/Cyclin Y; independent experiment 1): 96.6%
- inhibition at 10 µM (CDK17/Cyclin Y; independent experiment 2): 93.1%
- pIC50 (CDK17/Cyclin Y; average (± SEM where n=3)): 7.31
- pIC50 (CDK17/Cyclin Y; independent experiment 1): 7.30
- pIC50 (CDK17/Cyclin Y; independent experiment 2): 7.33
- inhibition at 10 µM (CDK5/CDK5R1; average of experiments): 93.3%
- inhibition at 10 µM (CDK5/CDK5R1; independent experiment 1): 88.5%
- inhibition at 10 µM (CDK5/CDK5R1; independent experiment 2): 98.1%
- pIC50 (CDK5/CDK5R1; average (± SEM where n=3), read-out: CDK5/CDK5R1 IC50): 6.74
- pIC50 (CDK5/CDK5R1; independent experiment 1, read-out: CDK5/CDK5R1 IC50): 6.72
- pIC50 (CDK5/CDK5R1; independent experiment 2, read-out: CDK5/CDK5R1 IC50): 6.74
- pIC50 (CDK5/CDK5R1; live HEK-293, 2 h, mean ± S.E.M. (n=3) or mean (n=2), read-out: IC50 for CDK/cyclin complexes, CDK5/R1): 6.74
- inhibition at 10 µM (CDK1/Cyclin E1; average of experiments): 95.4%
- inhibition at 10 µM (CDK1/Cyclin E1; independent experiment 1): 95%
- inhibition at 10 µM (CDK1/Cyclin E1; independent experiment 2): 95.8%
- pIC50 (CDK1/Cyclin E1; average (± SEM where n=3), read-out: CDK1/E1 IC50): 6.70
- pIC50 (CDK1/Cyclin E1; independent experiment 1, read-out: CDK1/E1 IC50): 6.70
- pIC50 (CDK1/Cyclin E1; independent experiment 2, read-out: CDK1/E1 IC50): 6.68
- pIC50 (CDK1/Cyclin E1; live HEK-293, 2 h, mean ± S.E.M. (n=3) or mean (n=2), read-out: IC50 for CDK/cyclin complexes, CDK1/E1): 6.70
- inhibition at 10 µM (CDK2/Cyclin E1; average of experiments): 96.5%
- inhibition at 10 µM (CDK2/Cyclin E1; independent experiment 1): 98%
- inhibition at 10 µM (CDK2/Cyclin E1; independent experiment 2): 95%
- inhibition at 10 µM (CDK11A/Cyclin L2; average of experiments): 95.6%
- inhibition at 10 µM (CDK11A/Cyclin L2; independent experiment 1): 93.3%
- inhibition at 10 µM (CDK11A/Cyclin L2; independent experiment 2): 97.9%
- pIC50 (CDK11A/Cyclin L2; average (± SEM where n=3)): 6.72
- pIC50 (CDK11A/Cyclin L2; independent experiment 1): 6.70
- pIC50 (CDK11A/Cyclin L2; independent experiment 2): 6.74
- inhibition at 10 µM (CDK14/Cyclin Y; average of experiments): 97.2%
- inhibition at 10 µM (CDK14/Cyclin Y; independent experiment 1): 96%
- inhibition at 10 µM (CDK14/Cyclin Y; independent experiment 2): 98.5%
- pIC50 (CDK14/Cyclin Y; average (± SEM where n=3), read-out: CDK14/Y IC50): 7.54
- pIC50 (CDK14/Cyclin Y; independent experiment 1, read-out: CDK14/Y IC50): 7.55
- pIC50 (CDK14/Cyclin Y; independent experiment 2, read-out: CDK14/Y IC50): 7.54
- pIC50 (CDK14/Cyclin Y; live HEK-293, 2 h, mean ± S.E.M. (n=3) or mean (n=2), read-out: IC50 for CDK/cyclin complexes, CDK14/Y): 7.54
- inhibition at 10 µM (CDK16/Cyclin Y; independent experiment 1): 96.3%
- inhibition at 10 µM (CDK16/Cyclin Y; independent experiment 2): 92.9%
- inhibition at 10 µM (CDK20/Cyclin H; independent experiment 1): 79.2%
- inhibition at 10 µM (CDK20/Cyclin H; independent experiment 2): 82.8%
- inhibition at 10 µM (CDK6/Cyclin D1; average of experiments): 98.3%
- inhibition at 10 µM (CDK6/Cyclin D1; independent experiment 1): 97.3%
- inhibition at 10 µM (CDK6/Cyclin D1; independent experiment 2): 99.2%
- pIC50 (CDK6/Cyclin D1; average (± SEM where n=3)): 6.57
- pIC50 (CDK6/Cyclin D1; independent experiment 1): 6.54
- pIC50 (CDK6/Cyclin D1; independent experiment 2): 6.60
- inhibition at 10 µM (CDK13/Cyclin K; average of experiments): 63.7%
- inhibition at 10 µM (CDK13/Cyclin K; independent experiment 1): 47.7%
SMILES: CN1C/C=C/CCOc2cccc(c2)-c2ccnc(n2)Nc2cccc(c2)C1 [SB1317]
